Laboratory results from US5053561A, “Method of isolating trans-1,1,4,4-tetraalkyl-2-butene-1,4-diols” (BASF Aktiengesellschaft, priority 1989, dated 1991).

Experiment: Determination of the distribution coefficients between polar and non-polar phases
Type: physicochemical
Conditions: for Distribution coefficient k: 25° C.; for phase in which the isomer accumulates: seen from the distribution coefficients of Table 1
Text: To achieve separation of the cis- and trans-isomers of the alkenediols I which is as complete, efficient and economical as possible, it is necessary, when selecting the solvents for the polar and non-polar phases, to ensure that the quotient of the distribution coefficients ktrans /kcis of the trans- and cis-isomers between the polar and non-polar phases is as large as possible. The distribution coefficient k of the cis- or trans-isomer is defined as the concentration of isomer in the polar phase divided by the concentration of the same isomer in the non-polar phase in the equilibrium state, as illustrated by the following equations (1) and (2): [formula]
2 g of cis- or trans-alkenediol were dissolved, at 25° C., in a mixture of 40 ml of a polar solvent and 40 ml of a non-polar solvent. The mixture was vigorously shaken in a separating funnel for 10 minutes. Following separation of the phases, the solvents were removed by distillation under reduced pressure. The residues were weighed, and the results were used to calculate the distribution coefficients as defined in equations (1) and (2) above (see Table 1 below).

[1] = polar phase water + 2% methanol, non-polar phase toluene
[2] = polar phase water + 10% ethanol, non-polar phase toluene
[3] = polar phase water, non-polar phase cyclohexane
[4] = polar phase water, non-polar phase methyl cyclohexane
[5] = polar phase water, non-polar phase methyl isobutylketone
[6] = polar phase water, non-polar phase methylene chloride
[7] = polar phase water, non-polar phase n-hexane
[8] = polar phase water, non-polar phase toluene

SMILES | Distribution coefficient k [1] | Distribution coefficient k [2] | Distribution coefficient k [3] | Distribution coefficient k [4] | Distribution coefficient k [5] | Distribution coefficient k [6] | Distribution coefficient k [7] | Distribution coefficient k [8] | phase in which the isomer accumulates
CC(C)(O)/C=C\C(C)(C)O [cis, cis-2,5-dimethyl-3-hexene-2,5-diol] | 0.39 | 0.35 | 0.56 | 0.61 | 0.09 | 0.17 | 0.76 | 0.38 | accumulates in the non-polar phase
CC(C)(O)/C=C/C(C)(C)O [trans, trans-2,5-dimethyl-3-hexene-2,5-diol] | 62 | 23 | 30 | 52 | 3.0 | 7.3 | 34 | 25 | accumulates in the polar phase
